Structures can show the parent of a compound that is named as a salt.
target: T1, RORc (Homo sapiens, UniProt P51449); assay: In vitro RORc ligand binding assay (25-[3H]hydroxycholesterol displacement); details: IC50, IC50 values for RORc; unit inferred
T1 sequence (P51449 269-508 limits assumed): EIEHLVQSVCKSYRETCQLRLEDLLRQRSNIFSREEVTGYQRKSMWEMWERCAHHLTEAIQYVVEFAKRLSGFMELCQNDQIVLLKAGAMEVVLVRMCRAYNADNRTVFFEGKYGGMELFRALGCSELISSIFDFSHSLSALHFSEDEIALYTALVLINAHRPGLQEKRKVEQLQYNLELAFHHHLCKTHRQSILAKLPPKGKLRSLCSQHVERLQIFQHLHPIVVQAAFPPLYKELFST
Procedure: This assay was used to determine a compound's potency in inhibiting activity of RORc by determining, Kiapp, IC50, or percent inhibition values.
On day of the assay, 100 uL of 0.05% CHAPS (in deionized H2O) was added to all wells of the GFB Unifilter plate and allowed soak for 1 h. A wash buffer of 50 mM HEPES (pH 7.4), 150 mM NaCl, and 5 mM MgCl2 was prepared to wash the filter plate. To prepare an assay buffer, BSA was added to the wash buffer to reach 0.01% and DTT was added to reach 1 mM.
The 20× compound stocks were diluted in DMSO with Assay Buffer 4-fold to reach 5× the final test concentration in 25% DMSO (10 uL compound+30 uL Assay Buffer). Solutions were mixed by aspiration several times with a pipette set on 50 uL volume. For the assay, 10 uL of 5× compound stock solutions in 25% DMSO were added to the assay plate in duplicate.
For two point screening, 10 mM stock compound solutions were diluted in DMSO to obtain 200 uM (20× the high test concentration) and then diluted 10-fold further to reach 20 uM (20× the low test concentration). The 20× stocks were diluted 4-fold with Assay Buffer (10 uL compound+30 uL Assay Buffer) to reach 5× the test concentrations (50 uM and 5 uM) and 10 uL were added to two assay plates for the duplicate wells. With each concentration tested on 2 plates, each set of 80 compounds used 4 assay plates (1 uM and 10 uM, with n=2).
For 25-hydroxycholesterol in 25% DMSO/75% Assay Buffer; 10 uL per well was used for NSB samples. Wells for Total Binding and No Receptor sample determination contained 10 uL of 25% DMSO/75% Assay Buffer per well.
Add 20 uL to all wells to reach 6 nM final in the assay.
Stock receptor solution was diluted in assay buffer to obtain 1.5 ug/mL in Assay Buffer. 20 uL was added to all wells. For No R samples, 20 uL Assay Buffer was substituted for receptor solution.
Assay plates were 96-well polypropylene V-bottom plates. 10 uL of 5× compound in 25% DMSO/75% Assay Buffer was added to Test wells. 10 uL of 25% DMSO/75% Assay Buffer was added to Total Binding or No Receptor wells. 10 uL of 5 uM 25-hydroxycholesterol in 25% DMSO/75% Assay Buffer was added to NSB wells. […] 20 uL of 1.5 ug/mL RORc receptor was added to wells (or 40 uL Assay Buffer to No R wells). Following addition to the wells, the plates were incubated 3 h at 25° C.
Using a Packard Filtermate Harvester, the filter plate were washed 4 times following transfer of the incubated samples. Plates were dry-filtered completely (2 h at 50° C. or overnight at room temperature). 50 uL Microscint 0 was added to all wells and read on Topcount protocol Inverted.
For NSB wells, 1 uM 25-hydroxycholesterol was also present.

| Compound | IC50 |
| --- | --- |
| CCOC(=O)CCC1(c2cc(F)c(CN3[C@@H](C)CC[C@H](c4ccccc4)S3(=O)=O)cc2F)CC1 [Compound 140, ethyl 3-[1-[2,5-difluoro-4-[[(3S,6R)-3-methyl-1,1-dioxo-6-phenyl-thiazinan-2-yl]methyl]phenyl]cyclopropyl]propanoate] | 45.7 nM |
| CC(=O)N1CCC(OCC(N)=O)(c2cc(F)c(CN3[C@@H](C)CC[C@H](c4ccccc4)S3(=O)=O)cc2F)CC1 [Compound 141, 2-[[1-acetyl-4-[2,5-difluoro-4-[[(3S,6R)-3-methyl-1,1-dioxo-6-phenyl-thiazinan-2-yl]methyl]phenyl]-4-piperidyl]oxy]acetamide] | 26 nM |
| C[C@H]1CC[C@H](c2ccccc2)S(=O)(=O)N1Cc1cc(F)c(C2(OCC(O)CO)COC2)cc1F (stereo partly drawn) [Compound 142, 3-[3-[2,5-difluoro-4-[[(3S,6R)-3-methyl-1,1-dioxo-6-phenyl-thiazinan-2-yl]methyl]phenyl]oxetan-3-yl]oxypropane-1,2-diol] | 20.6 nM |
| CC(=O)N1CC(OCC(O)CO)(c2cc(F)c(CN3[C@@H](C)CC[C@H](c4ccccc4)S3(=O)=O)cc2F)C1 (stereo partly drawn) [Compound 143, 1-[3-[2,5-difluoro-4-[[(3S,6R)-3-methyl-1,1-dioxo-6-phenyl-thiazinan-2-yl]methyl]phenyl]-3-(2,3-dihydroxypropoxy)azetidin-1-yl]ethanone] | 29.8 nM |
| CC(=O)N1CCC(OCC(O)CO)(c2cc(F)c(CN3[C@@H](C)CC[C@H](c4ccccc4)S3(=O)=O)cc2F)CC1 (stereo partly drawn) [Compound 144, 1-[4-[2,5-difluoro-4-[[(3S,6R)-3-methyl-1,1-dioxo-6-phenyl-thiazinan-2-yl]methyl]phenyl]-4-(2,3-dihydroxypropoxy)-1-piperidyl]ethanone] | 21.6 nM |
| C[C@H]1CC[C@H](c2ccccc2)S(=O)(=O)N1Cc1cc(F)c(C2(OCC(=O)O)CCOCC2)cc1F [Compound 145, 2-[4-[2,5-difluoro-4-[[(3S,6R)-3-methyl-1,1-dioxo-6-phenyl-thiazinan-2-yl]methyl]phenyl]tetrahydropyran-4-yl]oxyacetic acid] | 14.3 nM |
| CNC(=O)CCC1(c2cc(F)c(CN3[C@@H](C)CC[C@H](c4ccccc4)S3(=O)=O)cc2F)CC1 [Compound 146, 3-[1-[2,5-difluoro-4-[[(3S,6R)-3-methyl-1,1-dioxo-6-phenyl-thiazinan-2-yl]methyl]phenyl]cyclopropyl]-N-methyl-propanamide] | 32.7 nM |
| C[C@H]1CC[C@H](c2ccccc2)S(=O)(=O)N1Cc1cc(F)c(C2(CCC(=O)N(C)C)CC2)cc1F [Compound 147, 3-[1-[2,5-difluoro-4-[[(3S,6R)-3-methyl-1,1-dioxo-6-phenyl-thiazinan-2-yl]methyl]phenyl]cyclopropyl]-N,N-dimethyl-propanamide] | 32.5 nM |
| CC(=O)N1CCC(C#N)(c2cc(F)c(CN3[C@@H](C)CC[C@H](c4ccccc4)S3(=O)=O)cc2F)CC1 [Compound 148, 1-acetyl-4-[2,5-difluoro-4-[[(3S,6R)-3-methyl-1,1-dioxo-6-phenyl-thiazinan-2-yl]methyl]phenyl]piperidine-4-carbonitrile] | 14.5 nM |
| CC(=O)N1CCC(C(N)=O)(c2cc(F)c(CN3[C@@H](C)CC[C@H](c4ccccc4)S3(=O)=O)cc2F)CC1 [Compound 149, 1-acetyl-4-[2,5-difluoro-4-[[(3S,6R)-3-methyl-1,1-dioxo-6-phenyl-thiazinan-2-yl]methyl]phenyl]piperidine-4-carboxamide] | 11.4 nM |
| C[C@H]1CC[C@H](c2ccccc2)S(=O)(=O)N1Cc1cc(F)c(C2(OCC(N)=O)CCOCC2)cc1F [Compound 150, 2-[4-[2,5-difluoro-4-[[(3S,6R)-3-methyl-1,1-dioxo-6-phenyl-thiazinan-2-yl]methyl]phenyl]tetrahydropyran-4-yl]oxyacetamide] | 6.1 nM |
| C[C@H]1CC[C@H](c2ccccc2)S(=O)(=O)N1Cc1cc(F)c(C2(OCC(O)CO)CCOCC2)cc1F (stereo partly drawn) [Compound 151, 3-[4-[2,5-difluoro-4-[[(3S,6R)-3-methyl-1,1-dioxo-6-phenyl-thiazinan-2-yl]methyl]phenyl]tetrahydropyran-4-yl]oxypropane-1,2-diol] | 7.8 nM |
| C[C@H]1CC[C@H](c2ccccc2)S(=O)(=O)N1Cc1ccc(C2(NC(=O)OC(C)(C)C)CC2)cc1F [Compound 152, tert-butyl N-[1-[3-fluoro-4-[[(3S,6R)-3-methyl-1,1-dioxo-6-phenyl-thiazinan-2-yl]methyl]phenyl]cyclopropyl]carbamate] | 227 nM |
| C[C@H]1CC[C@H](c2ccccc2)S(=O)(=O)N1Cc1ccc(C2(N)CC2)cc1F [Compound 153, 1-[3-fluoro-4-[[(3S,6R)-3-methyl-1,1-dioxo-6-phenyl-thiazinan-2-yl]methyl]phenyl]cyclopropanamine; hydrochloride] | 572 nM |
| CNC(=O)COC1(c2cc(F)c(CN3[C@@H](C)CC[C@H](c4ccccc4)S3(=O)=O)cc2F)CCOCC1 [Compound 154, 2-[4-[2,5-difluoro-4-[[(3S,6R)-3-methyl-1,1-dioxo-6-phenyl-thiazinan-2-yl]methyl]phenyl]tetrahydropyran-4-yl]oxy-N-methyl-acetamide] | 5.7 nM |
| C[C@H]1CC[C@H](c2ccccc2)S(=O)(=O)N1Cc1cc(F)c(C2(OCC(=O)NCCO)CCOCC2)cc1F [Compound 156, 2-[4-[2,5-difluoro-4-[[(3S,6R)-3-methyl-1,1-dioxo-6-phenyl-thiazinan-2-yl]methyl]phenyl]tetrahydropyran-4-yl]oxy-N-(2-hydroxyethyl)acetamide] | 15.2 nM |
| C[C@H]1CC[C@H](c2ccccc2)S(=O)(=O)N1Cc1cc(F)c(C2(OCC(=O)N(C)CCO)CCOCC2)cc1F [Compound 157, 2-[4-[2,5-difluoro-4-[[(3S,6R)-3-methyl-1,1-dioxo-6-phenyl-thiazinan-2-yl]methyl]phenyl]tetrahydropyran-4-yl]oxy-N-(2-hydroxyethyl)-N-methyl-acetamide] | 47.2 nM |
| C[C@H]1CC[C@H](c2ccccc2)S(=O)(=O)N1Cc1ccc(C2(CCO)COC2)cc1F [Compound 158] | 60.3 nM |
| C[C@H]1CC[C@H](c2ccccc2)S(=O)(=O)N1Cc1ccc(C2(CCC#N)COC2)cc1F [Compound 159] | 77.1 nM |
| COC1(OC)CC(C#N)(c2ccc(CN3[C@@H](C)CC[C@H](c4ccccc4)S3(=O)=O)c(F)c2)C1 [Compound 160, 1-[3-fluoro-4-[[(3S,6R)-3-methyl-1,1-dioxo-6-phenyl-thiazinan-2-yl]methyl]phenyl]-3,3-dimethoxy-cyclobutanecarbonitrile] | 14.5 nM |
| CCOC(=O)CNC1(c2ccc(CN3[C@@H](C)CC[C@H](c4ccccc4)S3(=O)=O)c(F)c2)CCOCC1 [Compound 161, ethyl 2-[[4-[3-fluoro-4-[[(3S,6R)-3-methyl-1,1-dioxo-6-phenyl-thiazinan-2-yl]methyl]phenyl]tetrahydropyran-4-yl]amino]acetate] | 29.5 nM |
| C[C@H]1CC[C@H](c2ccccc2)S(=O)(=O)N1Cc1ccc(C2(C#N)CC(=O)C2)cc1F [Compound 162, 1-[3-fluoro-4-[[(3S,6R)-3-methyl-1,1-dioxo-6-phenyl-thiazinan-2-yl]methyl]phenyl]-3-oxo-cyclobutanecarbonitrile] | 63.9 nM |
| C[C@H]1CC[C@H](c2ccccc2)S(=O)(=O)N1Cc1ccc(C2(NCC(N)=O)CCOCC2)cc1F [Compound 163, 2-[[4-[3-fluoro-4-[[(3S,6R)-3-methyl-1,1-dioxo-6-phenyl-thiazinan-2-yl]methyl]phenyl]tetrahydropyran-4-yl]amino]acetamide] | 3.2 nM |
| C[C@H]1CC[C@H](c2ccccc2)S(=O)(=O)N1Cc1ccc(C2(NCC(=O)O)CCOCC2)cc1F [Compound 164, 2-[[4-[3-fluoro-4-[[(3S,6R)-3-methyl-1,1-dioxo-6-phenyl-thiazinan-2-yl]methyl]phenyl]tetrahydropyran-4-yl]amino]acetic acid] | 112 nM |
| C[C@H]1CC[C@H](c2ccccc2)S(=O)(=O)N1Cc1ccc(C2(C#N)CC(F)(F)C2)cc1F [Compound 165, 3,3-difluoro-1-[3-fluoro-4-[[(3S,6R)-3-methyl-1,1-dioxo-6-phenyl-thiazinan-2-yl]methyl]phenyl]cyclobutanecarbonitrile] | 52.2 nM |
| C[C@H]1CC[C@H](c2ccccc2)S(=O)(=O)N1Cc1ccc(C2(NCC(=O)N(C)C)CCOCC2)cc1F [Compound 166, 2-[[4-[3-fluoro-4-[[(3S,6R)-3-methyl-1,1-dioxo-6-phenyl-thiazinan-2-yl]methyl]phenyl]tetrahydropyran-4-yl]amino]-N,N-dimethyl-acetamide] | 27.6 nM |
| C[C@H]1CC[C@H](c2ccccc2)S(=O)(=O)N1Cc1ccc(C2(C(N)=O)CC(F)(F)C2)cc1F [Compound 167, 3,3-difluoro-1-[3-fluoro-4-[[(3S,6R)-3-methyl-1,1-dioxo-6-phenyl-thiazinan-2-yl]methyl]phenyl]cyclobutanecarboxamide] | 11.1 nM |
| CCOC(=O)[C@@H](C)NC1(c2ccc(CN3[C@@H](C)CC[C@H](c4ccccc4)S3(=O)=O)c(F)c2)CCOCC1 [Compound 172, ethyl (2R)-2-[[4-[3-fluoro-4-[[(3S,6R)-3-methyl-1,1-dioxo-6-phenyl-thiazinan-2-yl]methyl]phenyl]tetrahydropyran-4-yl]amino]propanoate] | 120 nM |
| CNC(=O)CNC1(c2ccc(CN3[C@@H](C)CC[C@H](c4ccccc4)S3(=O)=O)c(F)c2)CCOCC1 [Compound 173, 2-[[4-[3-fluoro-4-[[(3S,6R)-3-methyl-1,1-dioxo-6-phenyl-thiazinan-2-yl]methyl]phenyl]tetrahydropyran-4-yl]amino]-N-methyl-acetamide] | 33.1 nM |
| CC(OC1(c2ccc(CN3[C@@H](C)CC[C@H](c4ccccc4)S3(=O)=O)c(F)c2)CCOCC1)C(N)=O (stereo partly drawn) [Compound 174, 2-[4-[3-fluoro-4-[[(3S,6R)-3-methyl-1,1-dioxo-6-phenyl-thiazinan-2-yl]methyl]phenyl]tetrahydropyran-4-yl]oxypropanamide] | 37.9 nM |

From patent US10131644B2, “Aryl sultam derivatives as RORc modulators” (Genentech, Inc., priority 2014, dated 2018)
